Test results reported in ChEMBL document CHEMBL4038300, “Return of D4 Dopamine Receptor Antagonists in Drug Discovery” (J Med Chem, 2017).

Legend:
[1] = molecular target: D(2) dopamine receptor (Homo sapiens, UniProt P14416); test: Inhibition of human dopamine D2 receptor
[2] = molecular target: T1, D(3) dopamine receptor (Homo sapiens, UniProt P35462); test: Inhibition of human dopamine D3 receptor
[3] = molecular target: T2, D(4) dopamine receptor (Homo sapiens, UniProt P21917); test: Inhibition of human dopamine D4 receptor
T2 sequence (P21917 whole entry): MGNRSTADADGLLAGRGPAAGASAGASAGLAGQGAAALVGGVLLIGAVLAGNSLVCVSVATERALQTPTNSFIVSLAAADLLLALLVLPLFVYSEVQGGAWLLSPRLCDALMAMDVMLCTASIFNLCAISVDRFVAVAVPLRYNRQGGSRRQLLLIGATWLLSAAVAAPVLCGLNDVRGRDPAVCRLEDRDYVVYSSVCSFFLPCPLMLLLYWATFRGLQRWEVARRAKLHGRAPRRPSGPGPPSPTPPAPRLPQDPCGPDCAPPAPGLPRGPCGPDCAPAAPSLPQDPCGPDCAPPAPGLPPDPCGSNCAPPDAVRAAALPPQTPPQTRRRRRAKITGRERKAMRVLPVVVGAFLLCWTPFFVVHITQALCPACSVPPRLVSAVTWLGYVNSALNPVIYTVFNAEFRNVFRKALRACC

[4] = Oral bioavailability in rat at 20 mg/kg; assay type: ADME, organism-based; settings: in vivo
[5] = Inhibition of human dopamine D4.4 receptor
[6] = molecular target: 5-hydroxytryptamine receptor 2A (Homo sapiens, UniProt P28223); test: Inhibition of serotonin 5-HT2 receptor (unknown origin); settings: concentration not given here
[7] = molecular target: 5-hydroxytryptamine receptor 2C (Homo sapiens) (UniProt P28335); test: Inhibition of serotonin 5-HT2C receptor (unknown origin); settings: concentration not given here
[8] = molecular target: Histamine H1 receptor (Homo sapiens, UniProt P35367); test: Inhibition of histamine H1 receptor (unknown origin); settings: concentration not given here
[9] = molecular target: Adrenergic receptor alpha-1 (Homo sapiens) (UniProt P35348+P25100+P35368); test: Inhibition of alpha1 adrenergic receptor (unknown origin); settings: concentration not given here
[10] = molecular target: Adrenergic receptor alpha-2 (Homo sapiens) (UniProt P08913+P18825+P18089); test: Inhibition of alpha2 adrenergic receptor (unknown origin); settings: concentration not given here
[11] = molecular target: Glutamate [NMDA] receptor (Homo sapiens) (UniProt Q05586+Q12879+Q13224+O15399+O60391+Q14957+Q8TCU5); test: Inhibition of NMDA receptor (unknown origin); settings: concentration not given here
[12] = molecular target: Neuropeptide Y receptor type 1 (Homo sapiens) (UniProt P25929); test: Inhibition of NPY1 receptor (unknown origin); settings: concentration not given here
[13] = molecular target: Neuropeptide Y receptor type 2 (Homo sapiens) (UniProt P49146); test: Inhibition of NPY2 receptor (unknown origin); settings: concentration not given here
[14] = organism: Homo sapiens; test: Inhibition of beta-adrenergic receptor (unknown origin); settings: concentration not given here
[15] = molecular target: Histamine H3 receptor (Homo sapiens) (UniProt Q9Y5N1); test: Inhibition of histamine H3 receptor (unknown origin); settings: concentration not given here
[16] = Inhibition of human dopamine D4.2 receptor
[17] = Inhibition of human dopamine D4.7 receptor
[18] = molecular target: D(1A) dopamine receptor (Homo sapiens, UniProt P21728); test: Inhibition of dopamine D1 receptor (unknown origin) at 10 uM
[19] = molecular target: T1, D(3) dopamine receptor; test: Inhibition of dopamine D3 receptor (unknown origin) at 10 uM
[20] = molecular target: D(1B) dopamine receptor (Homo sapiens, UniProt P21918); test: Inhibition of dopamine D5 receptor (unknown origin) at 10 uM
Sequence of D(1B) dopamine receptor (P21918 whole entry): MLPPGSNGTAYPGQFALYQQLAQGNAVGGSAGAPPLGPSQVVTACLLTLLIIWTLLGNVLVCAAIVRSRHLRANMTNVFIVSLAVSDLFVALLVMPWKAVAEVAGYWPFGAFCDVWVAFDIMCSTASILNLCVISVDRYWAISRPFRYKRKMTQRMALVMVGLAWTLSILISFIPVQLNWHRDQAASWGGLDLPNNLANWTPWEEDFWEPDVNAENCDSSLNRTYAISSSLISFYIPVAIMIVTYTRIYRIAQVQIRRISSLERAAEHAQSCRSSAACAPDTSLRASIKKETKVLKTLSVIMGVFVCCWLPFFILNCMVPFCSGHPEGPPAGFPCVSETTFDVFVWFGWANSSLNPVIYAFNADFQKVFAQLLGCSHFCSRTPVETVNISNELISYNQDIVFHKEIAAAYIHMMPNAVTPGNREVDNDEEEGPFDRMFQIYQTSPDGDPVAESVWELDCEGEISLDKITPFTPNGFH

T1 sequence (P35462 whole entry): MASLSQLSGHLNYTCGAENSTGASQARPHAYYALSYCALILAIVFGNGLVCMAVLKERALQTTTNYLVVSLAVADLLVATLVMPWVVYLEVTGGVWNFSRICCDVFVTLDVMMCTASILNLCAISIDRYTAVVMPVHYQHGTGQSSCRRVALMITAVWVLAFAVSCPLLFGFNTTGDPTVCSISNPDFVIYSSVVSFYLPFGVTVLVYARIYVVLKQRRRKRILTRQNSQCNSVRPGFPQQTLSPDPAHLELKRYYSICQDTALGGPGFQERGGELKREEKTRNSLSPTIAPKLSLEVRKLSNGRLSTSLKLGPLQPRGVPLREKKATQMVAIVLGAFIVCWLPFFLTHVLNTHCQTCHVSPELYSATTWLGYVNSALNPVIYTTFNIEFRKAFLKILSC
Sequence of 5-hydroxytryptamine receptor 2C (Homo sapiens) (P28335 whole entry): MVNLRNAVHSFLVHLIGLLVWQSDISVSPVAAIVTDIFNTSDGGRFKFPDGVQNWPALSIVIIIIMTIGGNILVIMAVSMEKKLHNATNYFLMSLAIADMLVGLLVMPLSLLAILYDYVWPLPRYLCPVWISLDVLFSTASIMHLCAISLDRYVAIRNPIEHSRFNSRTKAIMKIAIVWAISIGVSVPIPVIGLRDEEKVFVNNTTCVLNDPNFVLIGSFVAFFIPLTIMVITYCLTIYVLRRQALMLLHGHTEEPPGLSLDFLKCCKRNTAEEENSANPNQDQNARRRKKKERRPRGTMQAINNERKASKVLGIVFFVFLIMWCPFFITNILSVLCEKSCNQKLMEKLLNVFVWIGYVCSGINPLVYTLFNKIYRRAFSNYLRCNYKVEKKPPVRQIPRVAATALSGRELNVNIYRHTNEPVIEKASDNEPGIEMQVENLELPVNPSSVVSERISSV
Sequence of Neuropeptide Y receptor type 2 (Homo sapiens) (P49146 whole entry): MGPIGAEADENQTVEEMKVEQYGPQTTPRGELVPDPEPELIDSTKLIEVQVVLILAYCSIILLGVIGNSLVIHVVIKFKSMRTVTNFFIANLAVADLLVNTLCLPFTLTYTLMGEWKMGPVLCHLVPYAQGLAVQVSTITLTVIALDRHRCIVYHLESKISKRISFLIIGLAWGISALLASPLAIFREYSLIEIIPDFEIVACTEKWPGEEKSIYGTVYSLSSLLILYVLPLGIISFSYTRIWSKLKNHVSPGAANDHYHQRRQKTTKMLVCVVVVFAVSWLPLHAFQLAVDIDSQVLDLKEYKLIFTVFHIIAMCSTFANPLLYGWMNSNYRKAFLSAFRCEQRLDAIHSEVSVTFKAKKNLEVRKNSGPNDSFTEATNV
Sequence of Histamine H1 receptor (P35367 whole entry): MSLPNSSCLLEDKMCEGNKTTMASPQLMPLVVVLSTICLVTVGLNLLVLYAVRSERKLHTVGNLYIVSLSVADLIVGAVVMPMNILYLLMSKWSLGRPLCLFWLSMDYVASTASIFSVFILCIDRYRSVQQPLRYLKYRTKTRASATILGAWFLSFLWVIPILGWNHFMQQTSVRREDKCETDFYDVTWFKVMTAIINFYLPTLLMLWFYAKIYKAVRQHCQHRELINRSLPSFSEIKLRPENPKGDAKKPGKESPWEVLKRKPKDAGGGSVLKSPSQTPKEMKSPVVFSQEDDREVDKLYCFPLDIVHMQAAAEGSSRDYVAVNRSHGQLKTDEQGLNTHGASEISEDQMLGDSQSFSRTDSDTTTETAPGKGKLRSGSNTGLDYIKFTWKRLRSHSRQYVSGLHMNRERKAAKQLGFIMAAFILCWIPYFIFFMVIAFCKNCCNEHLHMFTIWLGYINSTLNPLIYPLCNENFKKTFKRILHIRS
Sequence of D(1A) dopamine receptor (P21728 whole entry): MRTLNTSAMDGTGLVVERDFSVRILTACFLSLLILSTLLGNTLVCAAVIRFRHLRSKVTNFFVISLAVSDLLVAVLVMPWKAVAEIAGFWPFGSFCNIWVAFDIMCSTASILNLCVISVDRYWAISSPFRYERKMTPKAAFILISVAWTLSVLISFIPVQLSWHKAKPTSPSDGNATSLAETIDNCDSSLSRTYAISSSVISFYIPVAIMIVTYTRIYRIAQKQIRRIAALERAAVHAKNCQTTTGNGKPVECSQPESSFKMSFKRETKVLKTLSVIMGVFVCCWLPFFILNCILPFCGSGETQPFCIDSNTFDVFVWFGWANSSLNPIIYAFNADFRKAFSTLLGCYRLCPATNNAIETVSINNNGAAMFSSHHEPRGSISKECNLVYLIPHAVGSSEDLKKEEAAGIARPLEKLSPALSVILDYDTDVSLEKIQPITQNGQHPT
Sequence of D(2) dopamine receptor (P14416 whole entry): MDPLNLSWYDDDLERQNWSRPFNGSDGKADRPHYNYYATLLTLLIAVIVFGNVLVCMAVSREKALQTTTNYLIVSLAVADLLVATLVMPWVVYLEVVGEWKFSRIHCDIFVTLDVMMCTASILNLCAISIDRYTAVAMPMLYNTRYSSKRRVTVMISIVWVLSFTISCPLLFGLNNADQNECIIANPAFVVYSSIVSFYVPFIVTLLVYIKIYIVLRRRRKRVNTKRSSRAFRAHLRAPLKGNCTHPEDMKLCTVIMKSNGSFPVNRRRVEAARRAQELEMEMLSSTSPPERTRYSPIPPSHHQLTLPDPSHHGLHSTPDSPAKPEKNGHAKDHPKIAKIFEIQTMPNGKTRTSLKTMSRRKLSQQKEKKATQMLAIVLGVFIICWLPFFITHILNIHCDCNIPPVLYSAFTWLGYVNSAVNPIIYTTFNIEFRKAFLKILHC
Sequence of Neuropeptide Y receptor type 1 (Homo sapiens) (P25929 whole entry): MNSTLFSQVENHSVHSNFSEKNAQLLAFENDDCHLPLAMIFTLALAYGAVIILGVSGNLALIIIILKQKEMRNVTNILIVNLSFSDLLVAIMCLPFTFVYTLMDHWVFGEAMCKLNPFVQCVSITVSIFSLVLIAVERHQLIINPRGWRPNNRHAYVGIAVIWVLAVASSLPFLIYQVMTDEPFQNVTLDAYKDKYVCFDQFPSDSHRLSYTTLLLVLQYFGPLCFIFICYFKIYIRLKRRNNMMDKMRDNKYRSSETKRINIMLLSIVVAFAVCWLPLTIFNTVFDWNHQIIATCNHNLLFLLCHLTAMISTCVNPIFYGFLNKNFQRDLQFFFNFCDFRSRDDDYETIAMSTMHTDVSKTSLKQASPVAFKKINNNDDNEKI
Sequence of Histamine H3 receptor (Homo sapiens) (Q9Y5N1 whole entry): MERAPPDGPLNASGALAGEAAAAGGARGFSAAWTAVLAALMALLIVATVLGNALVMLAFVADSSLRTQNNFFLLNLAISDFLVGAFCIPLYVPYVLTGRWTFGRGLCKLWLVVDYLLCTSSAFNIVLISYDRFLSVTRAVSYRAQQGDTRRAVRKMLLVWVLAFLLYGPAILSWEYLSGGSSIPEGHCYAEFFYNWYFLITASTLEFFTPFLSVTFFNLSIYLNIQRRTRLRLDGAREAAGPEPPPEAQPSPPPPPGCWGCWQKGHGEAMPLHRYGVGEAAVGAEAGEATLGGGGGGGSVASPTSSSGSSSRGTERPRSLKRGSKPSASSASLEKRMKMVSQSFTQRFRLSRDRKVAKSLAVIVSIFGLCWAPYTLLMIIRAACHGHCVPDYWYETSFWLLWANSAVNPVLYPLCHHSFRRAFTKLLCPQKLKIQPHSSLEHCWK
Sequence of 5-hydroxytryptamine receptor 2A (P28223 whole entry): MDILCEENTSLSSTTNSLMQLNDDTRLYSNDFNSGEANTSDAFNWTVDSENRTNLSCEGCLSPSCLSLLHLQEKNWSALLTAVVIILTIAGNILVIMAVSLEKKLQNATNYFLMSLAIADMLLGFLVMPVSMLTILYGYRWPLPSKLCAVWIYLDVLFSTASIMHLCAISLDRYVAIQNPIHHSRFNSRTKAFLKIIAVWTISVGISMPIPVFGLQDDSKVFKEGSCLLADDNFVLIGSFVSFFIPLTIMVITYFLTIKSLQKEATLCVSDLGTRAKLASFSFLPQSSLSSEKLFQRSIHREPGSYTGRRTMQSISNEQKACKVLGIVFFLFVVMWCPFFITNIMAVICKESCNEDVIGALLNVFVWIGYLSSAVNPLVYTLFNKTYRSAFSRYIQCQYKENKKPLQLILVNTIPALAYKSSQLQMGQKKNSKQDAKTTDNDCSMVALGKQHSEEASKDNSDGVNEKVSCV

Row | Structure (SMILES) | Ki [1] [nM] | Ki [2] [nM] | Ki [3] [nM] | bioavailability [4] [%] | Ki [5] [nM] | inhibition [6] [%] | inhibition [7] [%] | inhibition [8] [%] | inhibition [9] [%] | inhibition [10] [%] | inhibition [11] [%] | inhibition [12] [%] | inhibition [13] [%] | inhibition [14] [%] | inhibition [15] [%] | Ki [16] [nM] | Ki [17] [nM] | inhibition [18] [%] | inhibition [19] [%] | inhibition [20] [%]
1 | c1ccc(OCC2CN(Cc3c[nH]c4ccccc34)CCO2)cc1 (stereo not given) | 400 | 1480 | 5.6 | > 40 |  |  |  |  |  |  |  |  |  |  |  |  |  |  |  | 
2 | c1ccc(-c2nc(CN3CCN(c4ncccn4)CC3)c[nH]2)cc1 |  |  |  |  | 2.2 | < 50 | < 50 | < 50 | < 50 | < 50 | < 50 | < 50 | < 50 | < 50 | < 50 | 4.2 | 2.1 | < 50 | < 50 | < 50
